Patent publication US20160159861A1, “APJ Receptor Compounds” (priority 2013, published 2016)
Read-outs that look alike come from different tables or passages of the source. Peptide text beside a SMILES is read from it.

Key:
Assay type in all cases: cell-based
[1] = biological target: T1, human APJ receptor (hAPJ) (Homo sapiens, UniProt P35414); assay: HTRF cAMP assay: inhibition of NKH477-stimulated cAMP in HEK cells stably expressing hAPJ; conditions: for Emax: HEK293, read-out: % IA, bound stated; for % IA (cAMP inhibition, hAPJ HEK): intrinsic activity; for Ranking: composite class of EC50 (hAPJ), % IA and % histamine or formal (+) charge; for inhibition of NKH477-stimulated increase in cAMP, dose dependent: concentration response curves, FIGS. 1 and 2, HEK cells stably expressing APJ
T1 construct: expressed in transfected cells
T1 sequence (P35414 1-380): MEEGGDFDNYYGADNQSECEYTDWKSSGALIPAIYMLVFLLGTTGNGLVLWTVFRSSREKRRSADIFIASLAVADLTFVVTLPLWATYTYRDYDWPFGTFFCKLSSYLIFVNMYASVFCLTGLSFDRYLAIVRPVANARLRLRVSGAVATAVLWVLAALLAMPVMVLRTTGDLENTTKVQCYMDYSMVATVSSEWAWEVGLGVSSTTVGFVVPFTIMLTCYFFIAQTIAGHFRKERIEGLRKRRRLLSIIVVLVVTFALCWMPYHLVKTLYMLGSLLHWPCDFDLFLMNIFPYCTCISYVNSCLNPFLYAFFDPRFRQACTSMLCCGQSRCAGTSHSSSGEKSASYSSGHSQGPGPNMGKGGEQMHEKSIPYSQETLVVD
In short: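 HEK cells stably expressing hAPJ, induced with 1 nG/mL doxycycline and seeded overnight at 40 k/well. cAMP read by HTRF competitive immunoassay using cryptate-labeled anti-cAMP antibody and d2-labeled cAMP.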

rat peritoneal cells = assay: Ex vivo histamine release assay in rat peritoneal cells (vs. Compound 48/80)
In short: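 Resident peritoneal cells were lavaged from male Sprague Dawley rats and kept in HBSS/20 mM HEPES/0.2% BSA at 25,000 cells/well. They were exposed for 30 min at room temperature to compound at 3 points (100, 10, 1 μM DMSO stocks, 1% DMSO final). Released histamine was measured by HTRF and normalised to total histamine after Triton lysis. Compound 48/80 was the reference.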

CXCR4 receptor = CXCR4 receptor (Homo sapiens, UniProt P61073); assay: Activity at CXCR4 receptor (selectivity, Gi-coupled GPCR); conditions: FIGS. 6A-6C, selectivity vs. hAPJ
APJ receptor = biological target: T2, APJ receptor (Homo sapiens, UniProt P35414); assay: Cellul'erk ERK phosphorylation assay in APJ-TREX cells; parameters: expressed in transfected cells; host or cells: Human TRex (APJ-TREX) cells, doxycycline-inducible expression; conditions: relative to max pyr-apelin-13 activity at 100 nM; 3 or 0.3 μM compound, 5 minutes
T2 sequence (P35414 1-380): T1 sequence (P35414 1-380)
Protocol: Experiments were performed to test activation of the ERK and p38 pathways using the Cellul'erk and the Phospho-p38 MAPK (Thr180/Tyr182) assay kits (Cisbio). APJ-TREX cells were optimized for signaling (pre-serum starved overnight with low FBS serum (2% FBS media) with 1 ng/ml doxycyclin (for induction of APJ receptor expression), 50,000 cells, 5 minutes agonist activation for ERK activity). Cells were pretreated with 3 or 0.3 μM pepducin compound for 5 minutes and the reaction was stopped by lysis buffer. Lysates are then transferred to the assay plate for the detection of phosphorylated ERK or p38 by HTRF reagents.

[2] = HTRF cAMP Assay, per data of Table 6
[3] = HTRF cAMP Assay, per data of Table 6, read-out: EC50 (hAPJ), inhibition of cAMP production, bound stated
[4] = Table 6, hAPJ HEK cells, NKH477-stimulated cAMP, read-out: EC50 (cAMP inhibition, hAPJ HEK)

Chain of CXCR4 receptor (P61073 whole entry): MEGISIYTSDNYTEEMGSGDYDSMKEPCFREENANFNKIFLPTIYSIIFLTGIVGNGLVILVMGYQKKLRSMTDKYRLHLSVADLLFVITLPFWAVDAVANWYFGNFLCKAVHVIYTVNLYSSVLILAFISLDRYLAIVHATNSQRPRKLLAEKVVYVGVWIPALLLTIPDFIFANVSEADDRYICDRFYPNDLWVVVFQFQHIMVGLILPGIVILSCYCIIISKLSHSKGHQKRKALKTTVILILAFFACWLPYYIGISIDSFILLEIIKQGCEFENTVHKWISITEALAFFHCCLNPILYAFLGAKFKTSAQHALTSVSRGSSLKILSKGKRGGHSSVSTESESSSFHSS

| Emax [1, 2] [%] | EC50 [1, 3] [nM] | EC50 [1, 4] [nM] | % IA (cAMP inhibition, hAPJ HEK) ([1]; Table 6, hAPJ HEK cells) [%] | inhibition of NKH477-stimulated increase in cAMP, dose dependent [1] | Histamine (% vs. 48/80) (rat peritoneal cells) [%] | activity at the CXCR4 receptor (CXCR4 receptor) | Average % Activity (ERK agonist activity) (APJ receptor) [%] | Structure (SMILES) | Ranking [1] |
| --- | --- | --- | --- | --- | --- | --- | --- | --- | --- |
| ≥ 80 | ≤ 25 | 12 | 97 | inhibited | 9 | lack of dose-responsive activity | 51.8 | CCCCCCCCCCCCCCCC(=O)N[C@@H](CC(=O)O)C(=O)N[C@H](C(=O)N[C@@H](Cc1ccccc1)C(=O)N[C@@H](CCC(N)=O)C(=O)N[C@@H](CO)C(=O)N[C@@H](CO)C(=O)N[C@@H](CCC(=O)O)C(=O)N[C@H](CCCCN)C(=O)N[C@@H](CCCNC(=N)N)C(=O)N[C@@H](CCCNC(=N)N)C(=O)N[C@@H](CO)C(=O)N[C@@H](C)C(=O)N[C@@H](CC(=O)O)C(=O)N[C@@H](CCC(N)=O)C(=O)N[C@@H](Cc1ccccc1)C(=O)N[C@H](C(N)=O)[C@@H](C)CC)C(C)C [Compound 12] (HELM PEPTIDE1{[CCCCCCCCCCCCCCCC(=O)[*:2]].D.V.F.Q.S.S.E.[dK].R.R.S.A.D.Q.F.I.[am]}$$$$V2.0) | ***** (EC50≦25 nM (hAPJ), % IA≧80% and either % histamine≦35% or formal (+) charge≦1) |
| ≥ 80 | ≤ 25 | 17 | 99 | – | – | lack of dose-responsive activity | 34.7 | CCCCCCCCCCCCCCCC(=O)N[C@H](C(=O)N[C@H](C(=O)N[C@@H](Cc1ccccc1)C(=O)N[C@@H](CCCNC(=N)N)C(=O)N[C@@H](CO)C(=O)N[C@@H](CO)C(=O)N[C@@H](CCC(=O)O)C(=O)N1CCC[C@H]1C(=O)N[C@H](CCCCN)C(=O)N[C@@H](CCCNC(=N)N)C(=O)N[C@@H](CCCNC(=N)N)C(=O)N[C@@H](CO)C(=O)N[C@@H](C)C(=O)N[C@@H](CC(=O)O)C(=O)N[C@H](C(=O)N[C@@H](Cc1ccccc1)C(=O)N1CCC[C@H]1C(N)=O)[C@@H](C)CC)C(C)C)[C@@H](C)O [Compound 28] (HELM PEPTIDE1{[CCCCCCCCCCCCCCCC(=O)[*:2]].T.V.F.R.S.S.E.P.[dK].R.R.S.A.D.I.F.P.[am]}$$$$V2.0) | **** (EC50≦25 nM (hAPJ), % IA≧80% and either % histamine>35% or formal (+) charge>1) |
| ≥ 80 | ≤ 25 | 6 | 96 | inhibited | 17 | lack of dose-responsive activity | 44.0 | CCCCCCCCCCCCCCCC(=O)N[C@@H](CC(=O)O)C(=O)N[C@H](C(=O)N[C@@H](Cc1ccccc1)C(=O)N[C@@H](CCCNC(=N)N)C(=O)N[C@@H](CO)C(=O)N[C@@H](CO)C(=O)N[C@@H](CCC(=O)O)C(=O)N[C@H](CCCCN)C(=O)N[C@@H](CCCNC(=N)N)C(=O)N[C@@H](CCCNC(=N)N)C(=O)N[C@@H](CO)C(=O)N[C@@H](C)C(=O)N[C@@H](CC(=O)O)C(=O)N[C@@H](CCC(N)=O)C(=O)N[C@@H](Cc1ccccc1)C(=O)N[C@H](C(N)=O)[C@@H](C)CC)C(C)C [Compound 13] (HELM PEPTIDE1{[CCCCCCCCCCCCCCCC(=O)[*:2]].D.V.F.R.S.S.E.[dK].R.R.S.A.D.Q.F.I.[am]}$$$$V2.0) | ***** (EC50≦25 nM (hAPJ), % IA≧80% and either % histamine≦35% or formal (+) charge≦1) |
